Read-outs that look alike come from different tables or passages of the source.
Assays:
[1] = target: T1, CLDN18.2 virus-like particle (VLP) (Homo sapiens, UniProt P56856); assay: Indirect ELISA on CLDN18.2 virus-like particle (VLP); format: binding; settings: CLDN18.2 (antigen protein), VLP-coated plate
T1 construct: purchased CUSABIO TECHNOLOGY LLC CSB-MP005498HU (A5)
Method: To confirm the binding strength to an antigen, a CLDN18.2 virus-like particle (VLP) in which the claudin 18.2 protein (CLDN18.2) was expressed was prepared. At this time, CLDN18.2˜VLP is CSB-MP005498HU (A5) from CUSABIO TECHNOLOGY LLC.
After a 96-well plate was coated with the CLDN18.2 VLP for ELISA and treated with antibody-A and ADC-A, respectively, indirect ELISA was performed to measure OD values. At this time, the measured values are illustrated in FIG. 37.
The measured results were used for regression analysis in GraphPad PRISM® 9.0 software to calculate EC50 and Bmax. The antigen binding strengths of antibody-A, ADC-A, antibody-B, and ADC-B were evaluated based on the calculated values.

MIA PaCa-2˜CLDN18.2 = assay: Cell-based ELISA, binding to antigen-expressing cancer cells
Method: (§1) Four types of cell lines (MIA PaCa-2˜CLDN18.2, PATU8988S, parental MIA PaCa-2 (CLDN18.2-), and SNU601) were prepared. At this time, MIA PaCa-2˜CLDN18.2 and PATU8988S are CLDN18.2-positive pancreatic cancer cell lines. MIA PaCa-2 (CLDN18.2-) is a CLDN18.2-negative pancreatic cancer cell line. SNU601 is a CLDN18.2-positive gastric cancer cell line.
(§2) The prepared cell lines were cultured in DMEM containing 10% FBS and 1% penicillin/streptomycin (MIA PaCa-2˜CLDN18.2, MIA PaCa-2 (CLDN18.2-)), RPMI1640 containing 10% FBS and 1% penicillin/streptomycin (SNU601), and DMEM comprising 5% FBS, 5% horse serum, 1% penicillin/streptomycin, and […] L-glutamine (PATU8988S) in an incubator under the conditions of 37° C. and 5% CO2.
(§3) The prepared cell lines were plated on 96-well culture plates, treated with antibody-A, ADC-A, antibody-B, and ADC-B, respectively, and then cell-based ELISA was performed, and OD values were measured. At this time, the measured values are illustrated in FIGS. 38 to 41.
(§4) The measured results were used for regression analysis in GraphPad PRISM® 9.0 software to calculate EC50 and Bmax. The cell binding strengths of antibody-A, ADC-A, antibody-B, and ADC-B to each cell line were evaluated based on the calculated values.

SNU601 = assay: as above; settings: SNU601 (CLDN18.2+)
Method: as §1, §2, §3, §4

MIA PaCa-2 (CLDN18.2-) = assay: Cell-based ELISA, CLDN18.2-negative cancer cells; format: binding; settings: parental MIA PaCa-2, CLDN 18.2-negative cell line
Method: as §1, §2, §3, §4

Zolbetuximab [Antibody-B] showed a Bmax [1] of 2.134, a Bmax (MIA PaCa-2˜CLDN18.2) of 3.053 and a Kd (MIA PaCa-2˜CLDN18.2; pancreatic cancer cell line) of 0.045 µg/mL. For the same substance, the Kd (MIA PaCa-2˜CLDN18.2; read-out: Kd) was 0.3 nM, the Bmax (SNU601) was 1.701 and the Kd (SNU601; gastric cancer cell line) was 0.032 µg/mL. The Kd (SNU601; read-out: Kd) was 0.213 nM and the “binding to cell line (in words)” value (MIA PaCa-2 (CLDN18.2-)) was “did not bind”.
